Results: patent publication US4508648A, “Phosphoric ester of antibiotic OA-6129” (Sanraku-Ocean Co., Ltd., priority 1981, dated 1985)
Converted amounts (≈) assume the structure as drawn. Like-named read-outs stand apart in the source and are kept apart here.

Legend:
[1] = system: Escherichia coli K-12; assay: Minimum inhibitory concentration, agar dilution technique; format: cell-based; conditions: K12, heart infusion agar, inoculum 10^6 cells/ml, read-out: Minimum Inhibitory Concentration (M.I.C.)
Text: (§1) Minimum Inhibitory Concentration (M.I.C. in μg/ml)**
(§2) **Medium heartinfusion agar (Difco Lab.); inoculum size 10^6 cells/ml
(§3) determined by the agar dilution technique

[2] = system: Bacillus subtilis ATCC 6633; assay: as above; format: cell-based
Text: as §1, §2, §3

[3] = system: Comamonas terrigena B-996; assay: as above; format: cell-based; conditions: B996, heart infusion agar, inoculum 10^6 cells/ml, read-out: Minimum Inhibitory Concentration (M.I.C.)
Text: as §1, §2, §3

[4] = system: Staphylococcus aureus Russell; assay: as above; format: cell-based; conditions: heart infusion agar, inoculum 10^6 cells/ml, read-out: Minimum Inhibitory Concentration (M.I.C.)
Text: as §1, §2, §3

[5] = system: Enterobacter sp. E-8; assay: as above; format: cell-based; conditions: SP.E8, heart infusion agar, inoculum 10^6 cells/ml, read-out: Minimum Inhibitory Concentration (M.I.C.)
Text: as §1, §2, §3

[6] = system: Proteus rettgeri P-6; assay: as above; format: cell-based; conditions: Providencia rettgeri
Text: as §1, §2, §3

[7] = system: Staphylococcus aureus 209P; assay: as above; format: cell-based; conditions: read-out: Minimum Inhibitory Concentration (M.I.C.)
Text: as §1, §2, §3

[8] = system: Alcaligenes faecalis A1; assay: as above; format: cell-based; conditions: heart infusion agar, inoculum 10^6 cells/ml, read-out: Minimum Inhibitory Concentration (M.I.C.)
Text: as §1, §2, §3

[9] = system: Proteus mirabilis P-6; assay: as above; format: cell-based; conditions: P6, heart infusion agar, inoculum 10^6 cells/ml, read-out: Minimum Inhibitory Concentration (M.I.C.)
Text: as §1, §2, §3

[10] = system: Staphylococcus epidermidis; assay: as above; format: cell-based; conditions: heart infusion agar, inoculum 10^6 cells/ml, read-out: Minimum Inhibitory Concentration (M.I.C.)
Text: as §1, §2, §3

[11] = system: Providencia sp. P-8; assay: as above; format: cell-based
Text: as §1, §2, §3

[12] = system: Staphylococcus aureus Smith; assay: as above; format: cell-based; conditions: read-out: Minimum Inhibitory Concentration (M.I.C.)
Text: as §1, §2, §3

[13] = system: Sarcina lutea; assay: as above; format: cell-based; conditions: Micrococcus luteus; heart infusion agar; inoculum 10^6 cells/ml; read-out: Minimum Inhibitory Concentration (M.I.C.)
Text: as §1, §2, §3

[14] = Relative stability in kidney homogenate of dog; format: in vitro ADME; conditions: 37° C., 60 minutes, drug solution 100-300 μg/ml, read-out: Relative stability: drug remaining as a percentage of initial concentration
Description: (§4) *A drug solution (100-300 μg/ml) (0.1 ml) and a kidney homogenate (0.1
(§5) ml) were allowed to react at 37° C. for 60 minutes and the mixture
(§6) was immediately heattreated at 100° C. for 15 seconds. After
(§7) centrifugation, the concentration of the drug remaining in the supernatan
(§8) solution was bioassayed as a percentage of initial concentration by
(§9) Comamonas terrigena B996.
(§10) An overnight culture of Comamonas terrigena B-996 on a nutrient agar slant was suspended in nutrient broth to give a cell suspension of absorbance 0.04 at 610 nm. One percent of the cell suspension in volume was inoculated into molten agar medium containing 0.8% in weight of Kyokuto powdered bouillon (Kyokuto Pharmaceutical Co.) and 1.0% in weight of Bato-agar (Difco Lab.), and 7 ml each of the inoculated agar medium was poured into a 9 cm petri dish to make a Comamonas assay plate.

[15] = Relative stability in kidney homogenate of man; format: in vitro ADME; conditions: human (man) kidney homogenate; 37° C., 60 minutes; drug solution 100-300 μg/ml; read-out: Relative stability: drug remaining as a percentage of initial concentration
Description: as §4, §5, §6, §7, §8, §9, §10

[16] = Relative stability in kidney homogenate of mouse; format: in vitro ADME; conditions: 37° C., 60 minutes, drug solution 100-300 μg/ml, read-out: Relative stability: drug remaining as a percentage of initial concentration
Description: as §4, §5, §6, §7, §8, §9, §10

[17] = system: Pseudomonas aeruginosa NCTC 10490; assay: Minimum inhibitory concentration, agar dilution technique; format: cell-based; conditions: NCTC10490, beta-lactam-resistant strain, heart infusion agar, inoculum 10^6 cells/ml, read-out: Minimum Inhibitory Concentration (M.I.C.)
Text: as §1
(§11) *Beta-lactam-resistant strain.
as §2, §3

[18] = system: Citrobacter freundii GN346; assay: as above; format: cell-based; conditions: beta-lactam-resistant strain, heart infusion agar, inoculum 10^6 cells/ml, read-out: Minimum Inhibitory Concentration (M.I.C.)
Text: as §1, §11, §2, §3

[19] = system: Klebsiella pneumoniae K13; assay: as above; format: cell-based
Text: as §1, §11, §2, §3

[20] = system: Serratia marcescens S-18; assay: as above; format: cell-based
Text: as §1, §11, §2, §3

[21] = system: Enterobacter aerogenes E-19; assay: as above; format: cell-based; conditions: Klebsiella aerogenes, E19; beta-lactam-resistant strain; heart infusion agar; inoculum 10^6 cells/ml; read-out: Minimum Inhibitory Concentration (M.I.C.)
Text: as §1, §11, §2, §3

[22] = system: Pseudomonas aeruginosa IFO 3445; assay: as above; format: cell-based; conditions: IFO3445, beta-lactam-resistant strain, heart infusion agar, inoculum 10^6 cells/ml, read-out: Minimum Inhibitory Concentration (M.I.C.)
Text: as §1, §11, §2, §3

[23] = system: Serratia marcescens T55; assay: as above; format: cell-based; conditions: beta-lactam-resistant strain, heart infusion agar, inoculum 10^6 cells/ml, read-out: Minimum Inhibitory Concentration (M.I.C.)
Text: as §1, §11, §2, §3

[24] = system: Escherichia coli RGN823; assay: as above; format: cell-based; conditions: RGN823, read-out: Minimum Inhibitory Concentration (M.I.C.)
Text: as §1, §11, §2, §3

[25] = system: Proteus sp. P-22; assay: as above; format: cell-based; conditions: beta-lactam-resistant strain; heart infusion agar; inoculum 10^6 cells/ml; read-out: Minimum Inhibitory Concentration (M.I.C.)
Text: as §1, §11, §2, §3

[26] = system: Proteus vulgaris GN76; assay: as above; format: cell-based; conditions: beta-lactam-resistant strain, heart infusion agar, inoculum 10^6 cells/ml, read-out: Minimum Inhibitory Concentration (M.I.C.)
Text: as §1, §11, §2, §3

[27] = system: Enterobacter cloacae 45; assay: as above; format: cell-based; conditions: beta-lactam-resistant strain, heart infusion agar, inoculum 10^6 cells/ml, read-out: Minimum Inhibitory Concentration (M.I.C.)
Text: as §1, §11, §2, §3

[28] = Relative stability in phosphate buffer, pH 7.0 (control); format: physicochemical; conditions: 37° C., 60 minutes, drug solution 100-300 μg/ml, read-out: Relative stability: drug remaining as a percentage of initial concentration
Description: as §4, §5, §6, §7, §8, §9, §10

[29] = ATCC6633, heart infusion agar, inoculum 10^6 cells/ml, read-out: Minimum Inhibitory Concentration (M.I.C.)
[30] = SP.P8, heart infusion agar, inoculum 10^6 cells/ml, read-out: Minimum Inhibitory Concentration (M.I.C.)
[31] = heart infusion agar, inoculum 10^6 cells/ml
[32] = P6, heart infusion agar, inoculum 10^6 cells/ml, read-out: Minimum Inhibitory Concentration (M.I.C.)
[33] = K13, beta-lactam-resistant strain, heart infusion agar, inoculum 10^6 cells/ml, read-out: Minimum Inhibitory Concentration (M.I.C.)
[34] = S18, beta-lactam-resistant strain, heart infusion agar, inoculum 10^6 cells/ml, read-out: Minimum Inhibitory Concentration (M.I.C.)

Structure (SMILES)	MIC [1] [µg/mL]	MIC [3] [µg/mL]	MIC [4] [µg/mL]	MIC [5] [µg/mL]	MIC [8] [µg/mL]	MIC [9] [µg/mL]	MIC [10] [µg/mL]	MIC [13] [µg/mL]	remaining at 1 h [14] [%]	remaining at 1 h [15] [%]	remaining at 1 h [16] [%]	MIC [17] [µg/mL]	MIC [18] [µg/mL]	MIC [21] [µg/mL]	MIC [22] [µg/mL]	MIC [23] [µg/mL]	MIC [24] [µg/mL]	MIC [25] [µg/mL]	MIC [26] [µg/mL]	remaining at 1 h [28] [%]	further results
CC(O)C1C(=O)N2C(C(=O)O)=C(SCCNC(=O)CCNC(=O)C(O)C(C)(C)COP(=O)(O)O)CC12 (centres unmarked) [Phosphoric ester of antibiotic OA-6129B]	12.5 (≈ 22.6 µM)	0.39 (≈ 0.705 µM)	> 25	12.5 (≈ 22.6 µM)	6.25 (≈ 11.3 µM)	25 (≈ 45.2 µM)	> 25	> 25	29	72	42	> 25	> 25	25 (≈ 45.2 µM)	> 25	25 (≈ 45.2 µM)	12.5 (≈ 22.6 µM)	25 (≈ 45.2 µM)	25 (≈ 45.2 µM)	100	MIC [2, 29]: 25 µg/mL (≈ 45.2 µM); MIC ([6]; P6, read-out: Minimum Inhibitory Concentration (M.I.C.)): 12.5 µg/mL (≈ 22.6 µM); MIC [7]: 12.5 µg/mL (≈ 22.6 µM); MIC [11, 30]: 6.25 µg/mL (≈ 11.3 µM); MIC [12, 31]: > 25 µg/mL; MIC ([19]; K13, read-out: Minimum Inhibitory Concentration (M.I.C.)): 12.5 µg/mL (≈ 22.6 µM); MIC ([20]; S18, read-out: Minimum Inhibitory Concentration (M.I.C.)): 12.5 µg/mL (≈ 22.6 µM); MIC [27]: > 25 µg/mL
CCC1C(=O)N2C(C(=O)O)=C(SCCNC(C)=O)CC12 (centres unmarked) [Antibiotic PS-5]									10	28	10									100	
CC(O)C1C(=O)N2C(C(=O)O)=C(SCCNC(=O)CCNC(=O)C(O)C(C)(C)CO)CC12 (centres unmarked) [Antibiotic OA-6129B]									20	47	20									98	
CCC1C(=O)N2C(C(=O)O)=C(SCCNC(=O)CCNC(=O)C(O)C(C)(C)CO)CC12 (centres unmarked) [Antibiotic OA-6129A]	12.5 (≈ 27.3 µM)	0.05 (≈ 0.109 µM)	0.78 (≈ 1.7 µM)	12.5 (≈ 27.3 µM)	1.56 (≈ 3.41 µM)	50 (≈ 109 µM)	1.56 (≈ 3.41 µM)	6.25 (≈ 13.7 µM)	25	57	7	> 100	50 (≈ 109 µM)	25 (≈ 54.6 µM)	> 100	100 (≈ 219 µM)	12.5 (≈ 27.3 µM)	100 (≈ 219 µM)	100 (≈ 219 µM)	100	MIC [2, 29]: 0.39 µg/mL (≈ 0.852 µM); MIC [6, 32]: 25 µg/mL (≈ 54.6 µM); MIC [7, 31]: 0.78 µg/mL (≈ 1.7 µM); MIC ([11]; SP.P8, read-out: Minimum Inhibitory Concentration (M.I.C.)): 12.5 µg/mL (≈ 27.3 µM); MIC [12, 31]: 1.56 µg/mL (≈ 3.41 µM); MIC [19, 33]: 50 µg/mL (≈ 109 µM); MIC [20, 34]: 100 µg/mL (≈ 219 µM); MIC [27]: 50 µg/mL (≈ 109 µM)
Cc1nnc(SCC2=C(C(=O)O)N3C(=O)[C@@H](NC(=O)Cn4cnnn4)[C@H]3SC2)s1 [Cefazolin]	1.56 (≈ 3.43 µM)	0.1 (≈ 0.22 µM)	0.2 (≈ 0.44 µM)	1.56 (≈ 3.43 µM)	3.13 (≈ 6.89 µM)	6.25 (≈ 13.8 µM)	0.2 (≈ 0.44 µM)	0.39 (≈ 0.858 µM)				> 400	> 400	> 400	> 400	> 400	1.56 (≈ 3.43 µM)	> 400	> 400		MIC [2, 29]: 0.1 µg/mL (≈ 0.22 µM); MIC [6, 32]: 3.13 µg/mL (≈ 6.89 µM); MIC [7, 31]: 0.05 µg/mL (≈ 0.11 µM); MIC [11, 30]: 0.78 µg/mL (≈ 1.72 µM); MIC [12, 31]: 0.2 µg/mL (≈ 0.44 µM); MIC [19, 33]: 12.5 µg/mL (≈ 27.5 µM); MIC [20, 34]: > 400 µg/mL; MIC [27]: > 400 µg/mL
CCC1C(=O)N2C(C(=O)O)=C(SCCNC(=O)CCNC(=O)C(O)C(C)(C)COP(=O)(O)O)CC12 (centres unmarked) [Phosphoric ester of antibiotic OA-6129A]	3.13 (≈ 5.82 µM)	0.05 (≈ 0.093 µM)	6.25 (≈ 11.6 µM)	3.13 (≈ 5.82 µM)	1.56 (≈ 2.9 µM)	25 (≈ 46.5 µM)	6.25 (≈ 11.6 µM)	6.25 (≈ 11.6 µM)	18	96	47	> 25	> 25	12.5 (≈ 23.3 µM)	> 25	> 25	3.13 (≈ 5.82 µM)	25 (≈ 46.5 µM)	25 (≈ 46.5 µM)	114	MIC ([2]; ATCC6633, read-out: Minimum Inhibitory Concentration (M.I.C.)): 3.13 µg/mL (≈ 5.82 µM); MIC [6, 32]: 12.5 µg/mL (≈ 23.3 µM); MIC [7, 31]: 1.56 µg/mL (≈ 2.9 µM); MIC [11, 30]: 6.25 µg/mL (≈ 11.6 µM); MIC [12]: 3.13 µg/mL (≈ 5.82 µM); MIC [19, 33]: 25 µg/mL (≈ 46.5 µM); MIC [20, 34]: 25 µg/mL (≈ 46.5 µM); MIC [27]: 25 µg/mL (≈ 46.5 µM)
